Patent US7820670B2 (Alcon Research, Ltd., priority 2006, dated 2010)
Where a name gives a salt, the structure may show the parent alone. Read-outs that look alike come from different tables or passages of the source.

What was measured:
ROCK 2 = target: T1, ROCK 2 (Homo sapiens, UniProt O75116); test: Rho kinase assay (IMAP ROCK-II kit, fluorescence polarization); format: biochemical
T1 construct: purchased Molecular Devices, Sunnyvale, Calif
Procedure: (§1) The rho kinase assays were performed using a Biomek 2000 Robotic Workstation (Beckman Instruments, Palo Alto, Calif.) in a 96-well plate format. The assay was performed utilizing the IMAP ROCK-I and ROCK-II kits (Molecular Devices, Sunnyvale, Calif.) as follows. […] The substrate, enzyme, and ATP dilutions were made with the reaction buffer provided by the vendor. Test compounds were diluted in 10:10 DMSO-ethanol (vol/vol). For the actual assay, the various components were added into black, clear bottom, 96-well plates (Costar, Corning, N.Y.) in a final volume of 20μl per well. After the enzyme reaction (60 min at 23° C.), 60 μl of the binding solution was added per well and incubated for an additional 30 minutes in the dark at 23° C. Fluorescence polarization of the reaction mixtures was then measured on the Analyst™ HT instrument (Molecular Devices, Sunnyvale, Calif.).

ROCK 1 = ROCK 1 (Homo sapiens, UniProt Q13464); test: Rho kinase assay (IMAP ROCK-I kit, fluorescence polarization)
Procedure: as §1

[1] = substrate 200 nM, ATP 10 μM, 60 min at 23° C.

T1 sequence (O75116 whole entry, species assumed): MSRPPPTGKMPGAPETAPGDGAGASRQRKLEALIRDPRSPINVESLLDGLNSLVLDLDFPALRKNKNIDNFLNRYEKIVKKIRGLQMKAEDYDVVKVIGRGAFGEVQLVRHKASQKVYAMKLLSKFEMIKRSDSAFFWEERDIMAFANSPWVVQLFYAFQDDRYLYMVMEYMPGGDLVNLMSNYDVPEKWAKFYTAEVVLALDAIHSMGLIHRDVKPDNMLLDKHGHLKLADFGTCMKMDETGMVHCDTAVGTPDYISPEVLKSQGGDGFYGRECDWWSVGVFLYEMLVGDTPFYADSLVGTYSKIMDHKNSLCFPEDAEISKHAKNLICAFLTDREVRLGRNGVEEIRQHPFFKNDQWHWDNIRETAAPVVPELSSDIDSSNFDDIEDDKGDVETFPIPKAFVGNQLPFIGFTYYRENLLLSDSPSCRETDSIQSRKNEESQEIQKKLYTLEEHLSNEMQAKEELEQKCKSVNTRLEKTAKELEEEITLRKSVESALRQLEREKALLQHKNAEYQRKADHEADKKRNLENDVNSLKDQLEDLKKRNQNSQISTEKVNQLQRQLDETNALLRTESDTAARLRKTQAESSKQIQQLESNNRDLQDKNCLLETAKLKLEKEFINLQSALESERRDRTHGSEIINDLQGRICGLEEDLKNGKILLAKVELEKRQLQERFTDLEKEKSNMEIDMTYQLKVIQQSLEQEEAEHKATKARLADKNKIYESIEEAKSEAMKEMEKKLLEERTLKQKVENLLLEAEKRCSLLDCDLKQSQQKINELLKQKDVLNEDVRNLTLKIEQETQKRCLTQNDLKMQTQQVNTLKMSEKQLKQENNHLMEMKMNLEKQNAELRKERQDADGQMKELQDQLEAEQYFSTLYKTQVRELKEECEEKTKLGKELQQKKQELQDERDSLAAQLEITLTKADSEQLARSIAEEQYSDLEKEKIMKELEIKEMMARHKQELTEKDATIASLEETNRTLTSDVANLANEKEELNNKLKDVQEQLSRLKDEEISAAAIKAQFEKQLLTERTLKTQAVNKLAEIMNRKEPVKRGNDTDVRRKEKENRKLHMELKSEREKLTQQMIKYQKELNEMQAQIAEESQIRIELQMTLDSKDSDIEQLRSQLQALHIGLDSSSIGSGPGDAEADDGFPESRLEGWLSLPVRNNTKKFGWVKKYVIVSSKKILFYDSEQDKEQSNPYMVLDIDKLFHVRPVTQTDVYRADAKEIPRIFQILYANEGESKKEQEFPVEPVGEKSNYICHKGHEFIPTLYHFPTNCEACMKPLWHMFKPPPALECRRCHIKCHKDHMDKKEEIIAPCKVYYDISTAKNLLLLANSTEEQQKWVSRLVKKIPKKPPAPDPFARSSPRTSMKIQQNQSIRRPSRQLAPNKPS
Sequence of ROCK 1 (Q13464 whole entry, species assumed): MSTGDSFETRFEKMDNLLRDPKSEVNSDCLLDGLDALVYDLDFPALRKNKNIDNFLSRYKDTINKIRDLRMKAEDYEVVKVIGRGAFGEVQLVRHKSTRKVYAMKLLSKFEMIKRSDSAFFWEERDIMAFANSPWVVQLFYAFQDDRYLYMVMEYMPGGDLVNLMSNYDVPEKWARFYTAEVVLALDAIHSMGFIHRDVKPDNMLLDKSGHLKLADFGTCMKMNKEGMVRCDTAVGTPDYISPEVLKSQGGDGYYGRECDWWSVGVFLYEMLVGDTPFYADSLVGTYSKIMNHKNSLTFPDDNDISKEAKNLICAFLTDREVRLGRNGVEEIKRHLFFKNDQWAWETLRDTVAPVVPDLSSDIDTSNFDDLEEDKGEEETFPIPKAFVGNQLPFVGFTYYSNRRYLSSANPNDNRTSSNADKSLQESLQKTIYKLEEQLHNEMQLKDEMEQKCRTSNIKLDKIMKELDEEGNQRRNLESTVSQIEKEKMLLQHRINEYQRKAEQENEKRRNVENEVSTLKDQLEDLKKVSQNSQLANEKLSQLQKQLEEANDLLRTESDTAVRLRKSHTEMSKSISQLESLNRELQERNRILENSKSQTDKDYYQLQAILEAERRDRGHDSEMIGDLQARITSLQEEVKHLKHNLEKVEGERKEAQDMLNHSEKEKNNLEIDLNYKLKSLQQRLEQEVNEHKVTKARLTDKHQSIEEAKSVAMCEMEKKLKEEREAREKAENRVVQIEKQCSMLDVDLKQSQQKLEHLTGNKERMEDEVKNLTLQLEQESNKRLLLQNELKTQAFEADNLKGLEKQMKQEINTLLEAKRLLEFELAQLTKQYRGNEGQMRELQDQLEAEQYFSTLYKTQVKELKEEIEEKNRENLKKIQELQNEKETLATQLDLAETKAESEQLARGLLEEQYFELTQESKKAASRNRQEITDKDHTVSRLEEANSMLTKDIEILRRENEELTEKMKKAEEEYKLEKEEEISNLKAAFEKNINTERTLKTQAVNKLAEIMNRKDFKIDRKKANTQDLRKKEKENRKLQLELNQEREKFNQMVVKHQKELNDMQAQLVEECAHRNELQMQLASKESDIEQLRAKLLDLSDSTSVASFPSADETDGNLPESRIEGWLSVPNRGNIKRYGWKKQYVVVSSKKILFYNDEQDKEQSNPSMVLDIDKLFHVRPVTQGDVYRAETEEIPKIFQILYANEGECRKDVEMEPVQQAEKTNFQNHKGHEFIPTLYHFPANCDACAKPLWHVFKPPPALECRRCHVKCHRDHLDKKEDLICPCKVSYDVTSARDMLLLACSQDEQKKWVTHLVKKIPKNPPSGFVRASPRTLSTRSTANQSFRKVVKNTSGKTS

IC50 (ROCK 2; [1]) | IC50 (ROCK 1) | SMILES | IC50 (ROCK 2)
> 100 µM | > 100 µM | COCc1cnc2ccc(NCCCN3CCOCC3)nn12 [Example 30, 3-(Methoxymethyl)-N-(3-morpholinopropyl)imidazo[1,2-b]pyridazin-6-amine hydrochloride] | 
56 µM | 12 µM | c1n[nH]cc1-c1cnc2ccc(N3CCOCC3)nn12 [Example 3, 4-(3-(1H-Pyrazol-4-yl)imidazo[1,2-b]pyridazin-6-yl)morpholine] | 
3.7 µM | 7 µM | CCCC/C=C/c1cnc2ccc(NCc3ccccn3)nn12 [Example 9, (E)-3-(Hex-1-enyl)-N-(pyridin-2-ylmethyl)imidazo[1,2-b]pyridazin-6-amine fumarate] | 
16 µM | 67 µM | Cc1cnc2ccc(NCc3ccccn3)nn12 [Example 15, 3-Methyl-N-(pyridin-2-ylmethyl)imidazo[1,2-b]pyridazin-6-amine hydrochloride] | 
79 µM | 36 µM | Cc1cnc2ccc(NCCN(C)C)nn12 [Example 11, N^1,N^1-Dimethyl-N^2-(3-methylimidazo[1,2-b]pyridazin-6-yl)ethane-1,2-diamine] | 
2 µM | 2.1 µM | CCC/C=C/c1cnc2ccc(NCc3ccccn3)nn12 [Example 19, (E)-3-(Pent-1-enyl)-N-(pyridin-2-ylmethyl)imidazo[1,2-b]pyridazin-6-amine hydrochloride] | 
17 µM | 25 µM | Clc1cnc2ccc(NCc3ccccn3)nn12 [Example 13, 3-Chloro-N-(pyridin-2-ylmethyl)imidazo[1,2-b]pyridazin-6-amine] | 
200 µM | > 100 µM | C1=C(c2cnc3ccc(NCc4ccccn4)nn23)CCCC1 [Example 21, 3-Cyclohexenyl-N-(pyridin-2-ylmethyl)imidazo[1,2-b]pyridazin-6-amine hydrochloride] | 
5.8 µM | 9 µM | CCCCC#Cc1cnc2ccc(NCCCN3CCOCC3)nn12 [Example 26, 3-(Hex-1-ynyl)-N-(3-morpholinopropyl)imidazo[1,2-b]pyridazin-6-amine hydrochloride] | 
8.2 µM | 5 µM | CCCC/C=C/c1cnc2ccc(NCCCCN(C)C)nn12 [Example 46, (E)-N^1-(3-(Hex-1-enyl)imidazo[1,2-b]pyridazin-6-yl)-N^4,N^4-dimethylbutane-1,4-diamine] | 
97 µM | > 100 µM | COCCNc1ccc2ncc(C)n2n1 [Example 12, N-(2-Methoxyethyl)-3-methylimidazo[1,2-b]pyridazin-6-amine] | 
17 µM | 6 µM | CCCC/C=C/c1cnc2ccc(N[C@H]3CC[C@@H](O)CC3)nn12 [Example 50, Syn-(E)-4-(3-(Hex-1-enyl)imidazo[1,2-b]pyridazin-6-ylamino)cyclohexanol hydrochloride] | 
 | 37 µM | Clc1cnc2ccc(NCCCN3CCOCC3)nn12 [Example 14, 3-Chloro-N-(3-morpholinopropyl)imidazo[1,2-b]pyridazin-6-amine hydrochloride] | 
120 µM | 38 µM | CCCCC/C=C/c1cnc2ccc(NCCCN3CCOCC3)nn12 [Example 22, (E)-3-(Hept-1-enyl)-N-(3-morpholinopropyl)imidazo[1,2-b]pyridazin-6-amine hydrochloride] | 
> 100 µM | 78 µM | CCCC/C=C/c1cnc2ccc(NC(CC)CO)nn12 (stereo not shown) [Example 10, (E)-2-(3-(Hex-1-enyl)imidazo[1,2-b]pyridazin-6-ylamino)butan-1-ol] | 
> 100 µM | > 100 µM | CCCNc1ccc2ncc(-c3cc(C)cs3)n2n1 [Example 4, 3-(4-Methylthiophen-2-yl)-N-propylimidazo[1,2-b]pyridazin-6-amine] | 
0.77 µM | 1.1 µM | CCCC/C=C/c1cnc2ccc(NCCCN(C)C)nn12 [Example 39, (E)-N^1-(3-(Hex-1-enyl)imidazo[1,2-b]pyridazin-6-yl)-N^3,N^3-dimethylpropane-1,3-diamine hydrochloride] | 
17 µM | 42 µM | CCCCCCc1cnc2ccc(NCc3ccccn3)nn12 [Example 29, 3-Hexyl-N-(pyridin-2-ylmethyl)imidazo[1,2-b]pyridazin-6-amine hydrochloride] | 
11 µM | 4.3 µM | CCCC/C=C/c1cnc2ccc(NCc3ccncc3)nn12 [Example 43, (E)-3-(Hex-1-enyl)-N-(pyridin-4-ylmethyl)imidazo[1,2-b]pyridazin-6-amine] | 
20 µM | 35 µM | CCCC/C=C/c1cnc2ccc(NCCOC)nn12 [Example 7, (E)-3-(Hex-1-enyl)-N-(2-methoxyethyl)imidazo[1,2-b]pyridazin-6-amine fumarate] | 

SMILES | IC50 (ROCK 2; [1]) | IC50 (ROCK 1) | IC50 (ROCK 2)
CCCC/C=C/c1cnc2ccc(N[C@H]3CC[C@H](O)CC3)nn12 [Example 49, Anti-(E)-4-(3-(Hex-1-enyl)imidazo[1,2-b]pyridazin-6-ylamino)cyclohexanol] | 29 µM | 13 µM | 
Cc1n[nH]c2ccc(-c3cnc4ccc(N5CCNCC5)nn34)cc12 [Example 52, 3-(3-Methyl-1H-indazol-5-yl)-6-piperazin-1-yl-imidazo[1,2-b]pyridazine trihydrochloride] | 0.014 µM | 0.027 µM | 
CCCC/C=C/c1cnc2ccc(NCCCN)nn12 [Example 48, (E)-N^1-(3-(Hex-1-enyl)imidazo[1,2-b]pyridazin-6-yl)propane-1,3-diamine] | 58 µM | 57 µM | 
COCc1cnc2ccc(NCc3ccccn3)nn12 [Example 34, hydrochloride] | > 100 µM | > 100 µM | 
NC(=O)c1ccc(-c2cnc3ccc(N4CCCNCC4)nn23)cc1 [Example 58, 4-(6-Perhydro-1,4-diazepin-1-yl-imidazo[1,2-b]pyridazin-3-yl)benzamide dihydrochloride] |  | 56 µM | 16 µM
c1cc2[nH]ncc2cc1-c1cnc2ccc(N3CCNCC3)nn12 [Example 51, 3-(1H-Indazol-5-yl)-6-piperazin-1-yl-imidazo[1,2-b]pyridazine dihydrochloride] | 0.0035 µM | 0.12 µM | 
Cc1n[nH]c2ccc(-c3cnc4ccc(NC5CCCNC5)nn34)cc12 (stereo not shown) [Example 53, [3-(3-methyl-1H-indazol-5-yl)-imidazo[1,2-b]pyridazine-6-yl]-piperidin-3-yl-amine trihydrochloride] | 0.073 µM | 0.082 µM | 
Cc1cnc2ccc(NCCCN3CCOCC3)nn12 [Example 16, 3-Methyl-N-(3-morpholinopropyl)imidazo[1,2-b]pyridazin-6-amine fumarate] | > 100 µM | > 100 µM | 
c1cncc(-c2cnc3ccc(N4CCCNCC4)nn23)c1 [Example 57, 6-Perhydro-1,4-diazepin-1-yl-3-pyridin-3-yl-imidazo[1,2-b]pyridazine trihydrochloride] | 23 µM | 63 µM | 
CCCC/C=C/c1cnc2ccc(NCCCN3CCCC3)nn12 [Example 47, (E)-3-(Hex-1-enyl)-N-(3-(pyrrolidin-1-yl)propyl)imidazo[1,2-b]pyridazin-6-amine dihydrochloride] |  | 59 µM | 38 µM
CCCC/C=C/c1cnc2ccc(NCc3cnc(C)cn3)nn12 [Example 44, (E)-3-(Hex-1-enyl)-N-((5-methylpyrazin-2-yl)methyl)imidazo[1,2-b]pyridazin-6-amine] | 34 µM | 22 µM | 
